Test results: patent US5179088A, “1-Carba(dethia)cephalosporin antibiotics” (Eli Lilly and Company, priority 1990, dated 1993)

Key:
Type in all cases: cell-based
Set-up in all cases: unit not given here
Staphylococcus Epi = experiment: in vitro antibacterial activity, agar dilution (Staphylococcus epi)
Protocol: (§1) *minimum inhibitory concentrations were determined by the Agardilution

Proteus incon = experiment: in vitro antibacterial activity, agar dilution (Proteus incon); settings: strain PR33
Protocol: as §1

Staphylococcus Aureus = experiment: in vitro antibacterial activity, agar dilution (Staphylococcus aureus)
Protocol: as §1

Salmonella = experiment: in vitro antibacterial activity, agar dilution (Salmonella)
Protocol: as §1

Proteus rett = experiment: in vitro antibacterial activity, agar dilution (Proteus rett); settings: strain C24
Protocol: as §1

Enterbacter Cloacea = experiment: in vitro antibacterial activity, agar dilution (Enterobacter cloacae)
Protocol: as §1

Serratia = experiment: in vitro antibacterial activity, agar dilution (Serratia)
Protocol: as §1

E. coli = experiment: in vitro antibacterial activity, agar dilution (E. coli)
Protocol: as §1

Proteus morg = experiment: in vitro antibacterial activity, agar dilution (Proteus morg); settings: strain PR15
Protocol: as §1

Shig. sonn = experiment: in vitro antibacterial activity, agar dilution (Shig. sonn); settings: strain N9
Protocol: as §1

Klebsiella = experiment: in vitro antibacterial activity, agar dilution (Klebsiella)
Protocol: as §1

Enterbacter Aerogenes = experiment: in vitro antibacterial activity, agar dilution (Enterobacter aerogenes)
Protocol: as §1

H. Influ. = experiment: in vitro antibacterial activity, agar dilution (H. influ.)
Protocol: as §1

Streptococcus pn = experiment: in vitro antibacterial activity, agar dilution (Streptococcus pn); settings: strain PARK
Protocol: as §1

Acin = experiment: in vitro antibacterial activity, agar dilution (Acin); settings: strain AC12
Protocol: as §1

Streptococcus A = experiment: in vitro antibacterial activity, agar dilution (Streptococcus A); settings: strain C203
Protocol: as §1

Streptococcus D = experiment: in vitro antibacterial activity, agar dilution (Streptococcus D)
Protocol: as §1

Pseudomonas = experiment: in vitro antibacterial activity, agar dilution (Pseudomonas)
Protocol: as §1

Citro = experiment: in vitro antibacterial activity, agar dilution (Citro); settings: strain CF17
Protocol: as §1

SMILES	minimum inhibitory concentration (Staphylococcus Epi; strain 222)	minimum inhibitory concentration (Staphylococcus Epi; strain 270)	minimum inhibitory concentration (Proteus incon)	minimum inhibitory concentration (Staphylococcus Aureus; strain S13E)	minimum inhibitory concentration (Staphylococcus Aureus; strain V41)	minimum inhibitory concentration (Staphylococcus Aureus; strain X1.1)	minimum inhibitory concentration (Staphylococcus Aureus; strain X400)	minimum inhibitory concentration (Salmonella; strain 1335)	minimum inhibitory concentration (Salmonella; strain X514)	minimum inhibitory concentration (Proteus rett)	minimum inhibitory concentration (Enterbacter Cloacea; strain 265A)	minimum inhibitory concentration (Enterbacter Cloacea; strain EB5)	minimum inhibitory concentration (Serratia; strain SE3)	minimum inhibitory concentration (Serratia; strain X99)	minimum inhibitory concentration (E. coli; strain N10)	minimum inhibitory concentration (Proteus morg)	minimum inhibitory concentration (Shig. sonn)	minimum inhibitory concentration (Klebsiella; strain KAE)	minimum inhibitory concentration (Klebsiella; strain X26)	minimum inhibitory concentration (Klebsiella; strain X68)	also measured
CO/N=C(\C(=O)N[C@@H]1C(=O)N2C(C(=O)O)=C(c3csc(C(c4ccccc4)c4ccccn4)n3)CC[C@H]12)c1csc(N)n1 (stereo partly drawn) [Example 38, 7β-[(2-aminothiazol-4-yl)-Z-methoximinoacetylamino]-1-carba-(1-dethia)-3-[2-(phenyl)(2-pyridyl)methyl)thiazol-4-yl-3-cephem-4-carboxylic acid]	64	64	4	> 128	32	4	> 128	8	4	4	> 128	8	64	8	8	32	8	128	.125	4	minimum inhibitory concentration (E. coli; strain EC14): 4; minimum inhibitory concentration (E. coli; strain TEM): 4; minimum inhibitory concentration (Enterbacter Aerogenes; strain C32): 8; minimum inhibitory concentration (Enterbacter Aerogenes; strain EB17): 8; minimum inhibitory concentration (H. Influ.; res, strain 76): .125; minimum inhibitory concentration (H. Influ.; sens, strain C.L.): 2; minimum inhibitory concentration (Streptococcus pn): .015; minimum inhibitory concentration (Acin): 64; minimum inhibitory concentration (Streptococcus A): < .008; minimum inhibitory concentration (Streptococcus D; strain 2041): 8; minimum inhibitory concentration (Streptococcus D; strain X66): > 128; minimum inhibitory concentration (Pseudomonas; strain PS18): > 128; minimum inhibitory concentration (Pseudomonas; strain PS72): > 128; minimum inhibitory concentration (Pseudomonas; strain X239): > 128; minimum inhibitory concentration (Pseudomonas; strain X528): > 128; minimum inhibitory concentration (Citro): 32
CO/N=C(\C(=O)N[C@@H]1C(=O)N2C(C(=O)O)=C(c3csc(-c4ccc(F)cc4)n3)CC[C@H]12)c1csc(N)n1 [Example 37, 7β-[(2-aminothiazol-4-yl)-Z-methoximinoacetylamino]-1-carba-(1-dethia)-3-[2-(4-fluorophenyl)thiazol-4-yl]-3-cephem-4-carboxylic acid]	2	32	.125	> 128	2	1	> 128	2	.5	.125	> 128	2	8	4	2	2	1	2	< .008	.5	minimum inhibitory concentration (E. coli; strain EC14): .5; minimum inhibitory concentration (Enterbacter Aerogenes; strain C32): 2; minimum inhibitory concentration (Enterbacter Aerogenes; strain EB17): 1; minimum inhibitory concentration (H. Influ.; res, strain 76): .015; minimum inhibitory concentration (H. Influ.; sens, strain C.L.): .03; minimum inhibitory concentration (Streptococcus pn): < .008; minimum inhibitory concentration (Acin): 128; minimum inhibitory concentration (Streptococcus A): < .008; minimum inhibitory concentration (Streptococcus D; strain 2041): 4; minimum inhibitory concentration (Streptococcus D; strain X66): > 128; minimum inhibitory concentration (Pseudomonas; strain PS18): > 128; minimum inhibitory concentration (Pseudomonas; strain PS72): > 128; minimum inhibitory concentration (Pseudomonas; strain X239): > 128; minimum inhibitory concentration (Pseudomonas; strain X528): > 128; minimum inhibitory concentration (Citro): 4
CO/N=C(\C(=O)N[C@@H]1C(=O)N2C(C(=O)O)=C(c3csc(-c4ncc([N+](=O)[O-])s4)n3)CC[C@H]12)c1csc(N)n1 [Example 36]	2	1	.25	32	2	.25	16	.5	.25	.06	.5	1	4	1	.25	.25	.25	.5	< .008	.25	minimum inhibitory concentration (E. coli; strain TEM): .25; minimum inhibitory concentration (Enterbacter Aerogenes; strain C32): .125; minimum inhibitory concentration (Enterbacter Aerogenes; strain EB17): .25; minimum inhibitory concentration (H. Influ.; res, strain 76): < .008; minimum inhibitory concentration (H. Influ.; sens, strain C.L.): .015; minimum inhibitory concentration (Streptococcus pn): < .008; minimum inhibitory concentration (Acin): 32; minimum inhibitory concentration (Streptococcus A): .015; minimum inhibitory concentration (Streptococcus D; strain 2041): 4; minimum inhibitory concentration (Streptococcus D; strain X66): 64; minimum inhibitory concentration (Pseudomonas; strain PS18): > 128; minimum inhibitory concentration (Pseudomonas; strain PS72): > 128; minimum inhibitory concentration (Pseudomonas; strain X239): 32; minimum inhibitory concentration (Pseudomonas; strain X528): 32; minimum inhibitory concentration (Citro): .06
CO/N=C(\C(=O)N[C@@H]1C(=O)N2C(C(=O)O)=C(c3csc(-c4ccccc4)n3)CC[C@H]12)c1csc(N)n1 [Example 31, Sodium 7β-[(2-aminothiazol-4-yl)-Z-methoximinoacetylamino]-1-carba-(1-dethia)-3-[2-(2-phenyl)thiazol-4-yl]-3-cephem-4-carboxylate]	2	8	.5	128	2	1	> 128	4	2	.25	64	1	8	4	2	2	1	1	.015	1	minimum inhibitory concentration (E. coli; strain EC14): 1; minimum inhibitory concentration (E. coli; strain TEM): 1; minimum inhibitory concentration (Enterbacter Aerogenes; strain C32): 1; minimum inhibitory concentration (Enterbacter Aerogenes; strain EB17): 1; minimum inhibitory concentration (H. Influ.; res, strain 76): .03; minimum inhibitory concentration (H. Influ.; sens, strain C.L.): .06; minimum inhibitory concentration (Streptococcus pn): < .008; minimum inhibitory concentration (Acin): 128; minimum inhibitory concentration (Streptococcus A): < .008; minimum inhibitory concentration (Streptococcus D; strain 2041): 4; minimum inhibitory concentration (Streptococcus D; strain X66): > 128; minimum inhibitory concentration (Pseudomonas; strain PS18): > 128; minimum inhibitory concentration (Pseudomonas; strain PS72): > 128; minimum inhibitory concentration (Pseudomonas; strain X239): > 128; minimum inhibitory concentration (Pseudomonas; strain X528): > 128; minimum inhibitory concentration (Citro): 4
